Experimental data as given in US9539176B2 (BAYER PHARMA AKTIENGESELLSCHAFT, priority 2012, dated 2017).

Assay: comparative stress test of the active coating suspension (60° C., 48 hours, HPLC)
Format: physicochemical
Protocol: The chemical stability of the coating suspension was verified by a comparative stress test: micronized candersartan cilexetil as a solid, an aqueous suspension of micronized candesartan cilexetil, and aqueous suspensions of micronized candesartan cilexetil together with Opadry II 85F19250 Clear in three different ratios were stored at 60° C. for 48 hours. The percentage of the stability indicating impurity Desethyl-Candesartan cilexetil was determined via HPLC. The same batch of micronized candesartan cilexetil has been used for all samples.

CCOc1nc2cccc(C(=O)OC(C)OC(=O)OC3CCCCC3)c2n1Cc1ccc(-c2ccccc2-c2nnn[nH]2)cc1 (centres unmarked) [micronized candesartan cilexetil (solid), candesartan cilexetil]
Desethyl-Candesartan cilexetil, start (start, before storage): 0.11%
Desethyl-Candesartan cilexetil, 48 hours (stored at 60° C. for 48 hours): 0.41%
